{"source": "patent US12558342B2", "about": "“2-[2-({12,12-dimethyl-4-oxo-6-phenyl-3,11-dioxatricyclo[8.4.0.0,2,7]tetradeca-1,5,7,9-tetraen-8-yl}oxy)acetamido]benzamide and derivatives as inhibitor of clock:bmal1 interaction for the treatment of circadian rhythm diseases and disorders” (KOC UNIVERSITESI, priority 2019, dated 2026)", "key": {"[1]": {"biological_target": "T1, CLOCK and BMAL1 interaction (Homo sapiens, UniProt O15516)", "T1 construct": "expressed in transfected cells; host or cells: HEK 293T", "T1 sequence (O15516 1-846)": "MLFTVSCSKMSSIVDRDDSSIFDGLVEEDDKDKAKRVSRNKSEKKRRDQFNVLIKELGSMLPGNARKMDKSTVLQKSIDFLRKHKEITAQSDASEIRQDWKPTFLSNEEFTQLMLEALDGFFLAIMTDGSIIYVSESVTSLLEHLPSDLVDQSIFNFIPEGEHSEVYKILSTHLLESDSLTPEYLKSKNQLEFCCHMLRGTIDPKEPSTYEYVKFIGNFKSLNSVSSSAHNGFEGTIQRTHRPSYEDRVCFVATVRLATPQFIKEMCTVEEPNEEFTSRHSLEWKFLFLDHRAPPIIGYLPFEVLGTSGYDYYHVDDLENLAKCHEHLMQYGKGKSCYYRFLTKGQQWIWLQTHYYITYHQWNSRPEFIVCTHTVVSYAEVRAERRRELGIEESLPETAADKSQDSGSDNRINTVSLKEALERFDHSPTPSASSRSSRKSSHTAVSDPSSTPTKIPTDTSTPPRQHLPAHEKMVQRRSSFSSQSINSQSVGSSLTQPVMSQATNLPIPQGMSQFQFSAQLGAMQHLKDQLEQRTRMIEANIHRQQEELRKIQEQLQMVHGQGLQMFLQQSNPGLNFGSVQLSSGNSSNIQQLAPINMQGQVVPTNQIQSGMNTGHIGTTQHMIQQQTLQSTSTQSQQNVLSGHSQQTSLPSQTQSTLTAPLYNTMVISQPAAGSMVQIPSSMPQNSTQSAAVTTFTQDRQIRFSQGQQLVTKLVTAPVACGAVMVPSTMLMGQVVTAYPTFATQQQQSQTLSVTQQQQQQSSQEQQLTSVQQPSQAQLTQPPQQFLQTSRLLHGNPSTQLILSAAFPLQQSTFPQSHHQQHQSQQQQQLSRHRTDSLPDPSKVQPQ", "assay": "Co-immunoprecipitation of FLAG-CLOCK and BMAL1", "type": "biochemical", "settings": "10 μM and 40 μM", "protocol": "HEK 293T cells co-expressing wild type or F80A-K220A mutant FLAG-tagged Clock together with tag-free Bmal1 were lysed with ice-cold lysis buffer (50 mM Tris-HCl PH 7.7, 150 mM NaCl, 0.1% Triton X-100, 1 mM PMSF and protease inhibitor cocktail) and centrifuged at 15000×g at 4° C. for 20 minutes. DMSO and different concentrations of CLK8 were added to the whole cell lysate. The mixtures were incubated with anti-FLAG M2 affinity gel (Sigma-Aldrich) at 4° C. overnight with continuous mixing. After three wash steps, bound proteins were eluted with Laemmli buffer heated at 95° C. for 7 minutes. CLOCK and BMAL1 were detected by monoclonal anti-FLAG M2 antibody (Sigma-Aldrich) and anti-BMAL1 (Santa Cruz Biotechnology) respectively. The amount of co-precipitated BMAL1 was normalized with the amount of precipitated CLOCK.\nHEK 293T cells co-expressing wild type or F80A-K220A mutant FLAG-tagged Clock together with tag-free Bmal1 were lysed with ice-cold lysis buffer (50 mM Tris-HCl pH 7.7, 150 mM NaCl, 0.1% Triton X-100, 1 mM PMSF and protease inhibitor cocktail) and centrifuged at 15000×g at 4° C. for 20 minutes. DMSO and different concentrations of CLK8 were added to the whole cell lysate. […] CLOCK and BMAL1 were detected by monoclonal anti-FLAG M2 antibody (Sigma-Aldrich) and anti-BMAL1 (Santa Cruz Biotechnology) respectively. […]"}, "[2]": {"tested_on": "core clock components", "assay": "Time dependent protein and mRNA analysis in synchronized U2OS cells", "type": "cell-based, human", "protocol": "FIGS. 5A-5K are an illustration of FORMULA I altered CLOCK protein level in time dependent manner. Confluent U2OS cells were synchronized by 2-hours treatment with dexamethasone (0.1 μM) and medium replaced with fresh medium containing CLK8 or DMSO. Cells were harvested at indicated time points. FIGS. 5A-5D show a time dependent analysis of core clock proteins by Western blot. (mean±SEM, n=3). FIGS. 5E-5K show a qPCR analysis of the core clock genes in a time dependent manner. (Data represent the mean±SEM, n=3 ***: p<0.001 **: p<0.005, *: p<0.05 versus DMSO control by one-way ANOVA Tukey).\nUnsynchronized Bmal1::dluc U2OS cells were seeded on 6-well dishes. Confluent cells were treated with an appropriate amount of CLK8 for 48 hours. Control cells were treated with 0.5% vehicle (DMSO). After harvesting the cells, mRNAs were isolated (RNeasy, QIAGEN) and converted to cDNA (Thermo Scientific). Finally, cDNAs were subjected to SYBR Green-based RT-qPCR assay. PRLP0 was used as an internal control. For western blot analysis RIPA buffer was used to prepare whole cell lysates. The amount of protein for each sample was normalized to the β-ACTIN amount detected by β-Actin antibody (Cell Signalling)."}, "[3]": {"biological_target": "T2, CLOCK (Homo sapiens, UniProt O15516)", "T2 sequence (O15516 1-846)": "T1 sequence (O15516 1-846)", "assay": "Pull-down assay with biotinylated CLK8, lysate of HEK293T cells overexpressing CLOCK and BMAL1", "type": "binding", "parameters": "expressed in transfected cells; host or cells: HEK293T", "settings": "200 μM competitor", "protocol": "HEK293T cells were transiently transfected with tag-free hsClock and mBmal1. After 48 hours of transfection, cells were harvested and whole cell lysate was prepared with ice-cold lysis buffer (50 mM Tris-HCl pH 7.4, 2 mM EDTA, 1 mM MgCl2, 0.2% NP-40, 1 mM sodium orthovanadate, 1 mM sodium fluoride and protease inhibitor cocktail) followed by centrifugation at 7000×g at 4° C. for 10 minutes. Lysate was diluted with ice-cold 2× binding buffer (100 mM Tris-HCl pH 7.4, 300 mM NaCl, 0.2% NP-40, 2 mM sodium orthovanadate, 2 mM sodium fluoride, and protease inhibitor cocktail) 27. The lysate was divided into three fractions to be treated with either DMSO, or 20 μM of bitoinylated-CLK8 (bait) with or without 200 μM CLK8 (competitor). The lysate-compound samples were incubated and mixed continuously at 4° C. for 1 hour. After equilibrating NeutroAvidin Agarose resin (Thermo Scientific) with lysis buffer, the lysate-compound mixture and NeutroAvidin Agarose resin were incubated and mixed continuously at 4° C. overnight. The beads were washed four times with 1× binding buffer. To elute the bound proteins Laemmli buffer was added and samples were heated at 95° C. for 7 minutes. The pull-down precipitates were subjected to SDS-PAGE and transferred to a PVDF membrane (Millipore). […]"}}}
{"compound": "CC1(C)CCc2c(cc(OCC(=O)Nc3ccccc3C(N)=O)c3c(-c4ccccc4)cc(=O)oc23)O1", "note": "[CLK8, 2-[2-({12,12-dimethyl-4-oxo-6-phenyl-3,11-dioxatricyclo [8.4.0.0,2,7]tetradeca-1,5,7,9-tetraen-8-yl}oxy)acetamido] benzamide]", "values": [{"measurement": "amount of co-precipitated BMAL1", "setting": "[1]", "value": "reduced as the concentration of CLK8 increased"}, {"measurement": "CRY1 and PER2 protein abundance", "setting": "[2]", "value": "comparable protein abundance"}, {"measurement": "CRY1 and PER2 transcript level", "setting": "[2]", "value": "significantly reduced"}, {"measurement": "protein levels of CLOCK and BMAL1", "setting": "[2]", "value": "reduced"}, {"measurement": "transcriptional level of Clock", "setting": "[2]", "value": "increased"}, {"measurement": "oscillatory amplitude of clock gene expression", "setting": "[2]; collected every 6 h", "value": "generally lower"}, {"measurement": "binding to CLOCK (competition with bait)", "setting": "[3]", "value": "specifically binds to CLOCK"}]}
